Key:
[1] = molecular target: T1, D3R (Homo sapiens, UniProt P35462); details: for binding affinity at D3R (in words) / D2R/D3R preference (in words): result in words; for decrease in binding affinity at D3R compared to eticlopride: relative to eticlopride; for Ki difference, O-alkylated v. N-alkylated linker with the same SP: D3R, 48 v. 15 and 49 v. 13; for D2R/D3R preference (in words): D3R v. D2R binding
[2] = molecular target: human D2L receptor (Homo sapiens, UniProt P14416); details: for binding affinity at D2R (in words): result in words; for decrease in binding affinity at D2R compared to eticlopride: relative to eticlopride
Sequence of human D2L receptor (P14416 whole entry): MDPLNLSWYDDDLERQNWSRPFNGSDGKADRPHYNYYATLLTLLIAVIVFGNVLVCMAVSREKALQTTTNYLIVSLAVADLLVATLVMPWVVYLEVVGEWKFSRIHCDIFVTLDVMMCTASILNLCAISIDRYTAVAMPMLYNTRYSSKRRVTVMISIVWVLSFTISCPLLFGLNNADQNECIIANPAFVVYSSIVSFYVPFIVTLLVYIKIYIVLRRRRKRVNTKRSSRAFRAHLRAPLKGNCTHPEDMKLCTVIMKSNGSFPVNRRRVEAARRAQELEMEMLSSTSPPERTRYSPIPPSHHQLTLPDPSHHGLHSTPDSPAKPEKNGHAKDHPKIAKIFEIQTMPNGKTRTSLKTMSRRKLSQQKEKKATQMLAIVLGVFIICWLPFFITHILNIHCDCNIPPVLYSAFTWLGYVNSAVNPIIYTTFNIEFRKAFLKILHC

[3] = molecular target: T1, D3R; details: result in words; compared to full agonist quinpirole and antagonist eticlopride

T1 sequence (P35462 whole entry): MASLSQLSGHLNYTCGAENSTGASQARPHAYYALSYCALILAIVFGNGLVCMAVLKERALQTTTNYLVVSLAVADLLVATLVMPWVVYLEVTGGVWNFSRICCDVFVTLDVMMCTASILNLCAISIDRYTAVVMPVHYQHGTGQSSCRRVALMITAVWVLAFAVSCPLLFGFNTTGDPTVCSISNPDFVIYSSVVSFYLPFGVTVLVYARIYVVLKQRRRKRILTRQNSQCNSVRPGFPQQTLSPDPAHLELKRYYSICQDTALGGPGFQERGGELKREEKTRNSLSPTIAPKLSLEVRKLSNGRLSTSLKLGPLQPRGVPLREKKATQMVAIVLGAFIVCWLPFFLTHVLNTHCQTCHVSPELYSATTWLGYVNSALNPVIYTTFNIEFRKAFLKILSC

CCc1cc(Cl)c(OC)c(C(=O)NC[C@@H]2C[C@@H](OCCCCOCc3ccccc3)CN2)c1O [50b, N-(((2S,4R)-4-(4-(Benzyloxy)butoxy)pyrrolidin-2-yl)methyl)-3-chloro-5-ethyl-6-hydroxy-2-methoxybenzamide]
binding affinity at D3R (in words) [1]: low nanomolar range
binding affinity at D2R (in words) [2]: low nanomolar range

CCc1cc(Cl)c(OC)c(C(=O)NC[C@@H]2CCCN2CCCCOc2ccc3c(c2)NC(=O)CC3)c1O [compound 11, (S)-3-Chloro-5-ethyl-6-hydroxy-2-methoxy-N-((1-(4-((2-oxo-1,2,3,4-tetrahydroquinolin-7-yl)oxy)butyl)pyrrolidin-2-yl)methyl)benzamide]
preference for D3R v. D2R ([1]; ratio of Ki D2R to Ki D3R): 3.6 fold

CCc1cc(Cl)c(OC)c(C(=O)NC[C@@H]2C[C@@H](OCCCCO)CN2)c1O [compound 51, 3-Chloro-5-ethyl-6-hydroxy-N-(((2S,4R)-4-(4-hydroxybutoxy)pyrrolidin-2-yl)methyl)-2-methoxybenzamide]
binding affinity at D3R (in words) [1]: low nanomolar range
binding affinity at D2R (in words) [2]: low nanomolar range

CCc1cc(Cl)c(OC)c(C(=O)NC[C@@H]2CCCN2)c1O.Cl [compound 5, (S)-3-chloro-5-ethyl-6-hydroxy-2-methoxy-N-(pyrrolidin-2-ylmethyl)benzamide hydrochloride, reference compound]
decrease in binding affinity at D3R compared to eticlopride [1]: 4 fold
decrease in binding affinity at D2R compared to eticlopride [2]: 19 fold

CCc1cc(Cl)c(OC)c(C(=O)NC[C@@H]2C[C@@H](OCCCCNC(=O)c3cc4ccccc4[nH]3)CN2CC)c1O [compound 48, N-(4-(((3R,5S)-5-((3-Chloro-5-ethyl-6-hydroxy-2-methoxybenzamido)methyl)-1-ethylpyrrolidin-3-yl)oxy)butyl)-1H-indole-2-carboxamide]
Ki difference, O-alkylated v. N-alkylated linker with the same SP [1]: ~ 56 fold

CCc1cc(Cl)c(OC)c(C(=O)NC[C@@H]2CCCN2CCCCNC(=O)c2cc3ccccc3o2)c1O [compound 13, (S)-N-(4-(2-((3-Chloro-5-ethyl-6-hydroxy-2-methoxybenzamido)methyl)pyrrolidin-1-yl)butyl) benzofuran-2-carboxamide]
D2R/D3R preference (in words) [1]: modest D3R preference was not seen

CCc1cc(Cl)c(OC)c(C(=O)NC[C@@H]2C[C@@H](OCCCCNC(=O)c3cc4ccccc4o3)CN2CC)c1O [compound 49, N-(4-(((3R,5S)-5-((3-chloro-5-ethyl-6-hydroxy-2-methoxybenzamido)methyl)-1-ethylpyrrolidin-3-yl)oxy)butyl)benzofuran-2-carboxamide]
Ki difference, O-alkylated v. N-alkylated linker with the same SP [1]: ~ 31 fold

CCc1cc(Cl)c(OC)c(C(=O)NC[C@@H]2CCCN2CCc2c(C)nc3n(c2=O)CCCC3)c1O [compound 10, (S)-3-Chloro-5-ethyl-6-hydroxy-2-methoxy-N-((1-(2-(2-methyl-4-oxo-6,7,8,9-tetrahydro-4H-pyrido[1,2-a]pyrimidin-3-yl)ethyl)pyrrolidin-2-yl)methyl)benzamide]
D2R/D3R preference (in words) [1]: equiactive at D2R and D3R

CCc1cc(Cl)c(OC)c(C(=O)NC[C@@H]2CCCN2Cc2ccccc2)c1O [compound 7, (S)-N-((1-Benzylpyrrolidin-2-yl)methyl)-3-chloro-5-ethyl-6-hydroxy-2-methoxybenzamide]
decrease in binding affinity at D3R compared to eticlopride [1]: 268 fold
decrease in binding affinity at D2R compared to eticlopride [2]: 1800 fold

CCc1cc(Cl)c(OC)c(C(=O)NC[C@@H]2CCCN2Cc2ccccc2)c1OCc1ccccc1 [compound 8, (S)-2-(Benzyloxy)-N-((1-benzylpyrrolidin-2-yl)methyl)-5-chloro-3-ethyl-6-methoxybenzamide]
binding affinity at D3R (in words) [1]: low affinity
binding affinity at D2R (in words) [2]: low affinity

CCc1cc(Cl)c(OC)c(C(=O)NC[C@@H]2C[C@@H](OCCCc3ccccc3)CN2)c1O [50a, 3-Chloro-5-ethyl-6-hydroxy-2-methoxy-N-(((2S,4R)-4-(3-phenylpropoxy)pyrrolidin-2-yl)methyl)benzamide]
binding affinity at D3R (in words) [1]: low nanomolar range
binding affinity at D2R (in words) [2]: low nanomolar range

CCCN1CCC[C@H]1CNC(=O)c1c(O)c(CC)cc(Cl)c1OC [compound 6, (S)-3-Chloro-5-ethyl-6-hydroxy-2-methoxy-N-((1-propylpyrrolidin-2-yl)methyl)benzamide]
decrease in binding affinity at D3R compared to eticlopride [1]: 2.6 fold
decrease in binding affinity at D2R compared to eticlopride [2]: 6 fold

CCc1cc(Cl)c(OC)c(C(=O)NC[C@@H]2CCCN2CC)c1O [eticlopride]
functional efficacy at D3R (Go BRET activation) [3]: reference antagonist
